In US12258332B2, “ASGPR cell surface receptor binding compounds and conjugates” (Lycia Therapeutics, Inc., priority 2021, dated 2025):
“Also recorded” adds a separate entry of the source. Where two headings read alike, the source gives them in different places.

How the values were obtained:
[1] = molecular target: T1, ASGPR (Homo sapiens, UniProt P07306); test: ASGPR binding by fluorescence polarization assay (GalNac-Cy5 probe); details: for IC50: 80 nM ASGPR, 1 nM probe, 2 hr incubation
T1 construct: purchased Acro Biosystems
T1 sequence (P07306 1-291): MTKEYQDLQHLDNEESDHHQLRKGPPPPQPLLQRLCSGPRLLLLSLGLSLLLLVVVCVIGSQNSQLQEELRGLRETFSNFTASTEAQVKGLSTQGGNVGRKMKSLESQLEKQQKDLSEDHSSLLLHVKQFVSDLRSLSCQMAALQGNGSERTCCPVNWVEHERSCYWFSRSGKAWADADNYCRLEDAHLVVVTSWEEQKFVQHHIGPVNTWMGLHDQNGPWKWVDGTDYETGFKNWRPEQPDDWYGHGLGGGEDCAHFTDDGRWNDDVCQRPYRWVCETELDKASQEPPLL
Method: Assay Procedure: ASGPR binding was measured in black 96-well plates using a fluorescence polarization assay. A fluorescent probe consisting of a tri-GalNAc linked to Cy5 (GalNac-Cy5, depicted below) was custom synthesized. Example compounds were resuspended in DMSO and 3-fold serial dilutions were made at 100× final concentrations. Binding reactions were conducted in 100 μl final volume in 20 mM Hepes (pH 7.5) 50 mM NaCl 5 mM CaCl2 0.015% Triton X-100 1% DMSO with 80 nM ASGPR (Acro Biosystems) and 1 nM probe. Fluorescence polarization was measured using λex=620 nm, λem=688 nm on an Envision plate reader (Perkin Elmer) after 2 hr incubation time. Dose responses were conducted in duplicate and normalized to the response with DMSO (high) and 1 μM reference compound 18G (low) on each plate. IC50 values were determined by fitting to 4-parameter curves in GraphPad Prism.
Example monovalent compounds (depicted below) were assessed at 100 μM as compared to a reference compound 18G (e.g., intermediate compound 18G in Example 14) as a positive control, following the assay procedure outlined in Example 68.

[2] = test system: HepG2 cells; test: Uptake of Alexa488-labelled target IgE bound to omalizumab (OMA) conjugates in HepG2 cells, flow cytometry; assay type: cell-based, human; details: omalizumab (anti-IgE) conjugate bound to IgE-Alexa488, equal molar ratios; 1 hour
Method: (§1) The omalizumab conjugates of Example 60 were bound to IgE-Alexa488 (prepared according to Example 62), as follows: equal molar ratios of omalizumab (anti-IgE) conjugate and IgE-Alexa488 were added in tissue culture media for 30 minutes at room temperature. The resulting anti-IgE conjugate:IgE antibody-Alexa488 compositions were added to HepG2 cells (100 k cells/50 ul per well, n=2), and Alexa488 fluorescence levels in the cells were measured at 1 hour by flow cytometry. As the fluorescently labelled target (IgE antibody) accumulates in cells, the fluorescence presents a way to measure total intracellular uptake by cells over time.
as §1, with “OMA Ab” for “The omalizumab”, “example compounds I-160-I-163 and I-141” for “Example 60”, “by adapting procedure in” for “according to”, “61),” for “62),”, “OMA(anti-IgE)” for “omalizumab (anti-IgE)”

[3] = trivalent compounds, read-out: IC50
[4] = monovalent compounds, read-out: IC50 (MM)
[5] = trivalent compounds, dose response curves

IC50 [1, 3] | IC50 [1, 4] | Structure (SMILES) | also measured
≤ 50 nM | – | NC(CCC(=O)NCCOCCOCCOCc1cn([C@H]2[C@H]3OC[C@](CO)(O3)[C@H](O)[C@@H]2O)nn1)(CCC(=O)NCCOCCOCCOCc1cn([C@H]2[C@H]3OC[C@](CO)(O3)[C@H](O)[C@@H]2O)nn1)CCC(=O)NCCOCCOCCOCc1cn([C@H]2[C@H]3OC[C@](CO)(O3)[C@H](O)[C@@H]2O)nn1 [XB40, 4-amino-4-(1-(1-((1S,2R,3R,4R,5S)-2,3-dihydroxy-1-(hydroxymethyl)-6,8-dioxabicyclo[3.2.1]octan-4-yl)-1H-1,2,3-triazol-4-yl)-12-oxo-2,5,8-trioxa-11-azatetradecan-14-yl)-N1,N7-bis(2-(2-(2-((1-((1S,2R,3R,4R,5S)-2,3-dihydroxy-1-(hydroxymethyl)-6,8-dioxabicyclo[3.2.1]octan-4-yl)-1H-1,2,3-triazol-4-yl)methoxy)ethoxy)ethoxy)ethyl)heptanediamide] | –
≤ 50 nM | ≤ 1000 nM | CC(=O)N[C@H]1[C@H](OCCCCC(=O)NCCCNC(=O)CCOCC(N)(COCCC(=O)NCCCNC(=O)CCCCO[C@@H]2O[C@H](CO)[C@H](O)[C@H](O)[C@H]2NC(C)=O)COCCC(=O)NCCCNC(=O)CCCCO[C@@H]2O[C@H](CO)[C@H](O)[C@H](O)[C@H]2NC(C)=O)O[C@H](CO)[C@H](O)[C@@H]1O [Compound 18G] | –
– | 1000 to 50000 nM | OC[C@H]1OC[C@H](Nc2cc(C(F)(F)F)ccn2)[C@@H](O)[C@H]1O [XB23] | –
– | 1000 to 50000 nM | O=C(O)c1cccc(OCc2cn([C@H]3CO[C@H](CO)[C@H](O)[C@@H]3O)nn2)c1 [XB20, 3-((1-((3S,4R,5R,6R)-4,5-dihydroxy-6-(hydroxymethyl)tetrahydro-2H-pyran-3-yl)-1H-1,2,3-triazol-4-yl)methoxy)benzoic acid] | –
50 to 100 nM | – | NC(CCC(=O)NCCOCCOCCOCc1cn([C@H]2CO[C@H](CO)[C@H](O)[C@@H]2O)nn1)(CCC(=O)NCCOCCOCCOCc1cn([C@H]2CO[C@H](CO)[C@H](O)[C@@H]2O)nn1)CCC(=O)NCCOCCOCCOCc1cn([C@H]2CO[C@H](CO)[C@H](O)[C@@H]2O)nn1 [XB32, 4-amino-4-(1-(1-((3S,4R,5R,6R)-4,5-dihydroxy-6-(hydroxymethyl)tetrahydro-2H-pyran-3-yl)-1H-1,2,3-triazol-4-yl)-12-oxo-2,5,8-trioxa-11-azatetradecan-14-yl)-N1,N7-bis(2-(2-(2-((1-((3S,4R,5R,6R)-4,5-dihydroxy-6-(hydroxymethyl)tetrahydro-2H-pyran-3-yl)-1H-1,2,3-triazol-4-yl)methoxy)ethoxy)ethoxy)ethyl)heptanediamide] | ASGPR binding affinity compared to reference compound 18G / other trivalent compounds [1, 5]: comparable affinity as reference compound 18G

Second part, the compound before the results:

Structure (SMILES) | IC50 [1, 3] | IC50 [1, 4] | also measured
O=C(O)CCCCCCCCCCC(=O)NC(CCC(=O)NCCOCCOCCn1cc(COc2nc(N[C@H]3CO[C@H](CO)[C@H](O)[C@@H]3O)cc(C(F)(F)F)n2)nn1)(CCC(=O)NCCOCCOCCn1cc(COc2nc(N[C@H]3CO[C@H](CO)[C@H](O)[C@@H]3O)cc(C(F)(F)F)n2)nn1)CCC(=O)NCCOCCOCCn1cc(COc2nc(N[C@H]3CO[C@H](CO)[C@H](O)[C@@H]3O)cc(C(F)(F)F)n2)nn1 [Compound 1920] | > 100 nM | – | –
CC(=O)N[C@H]1[C@H](OCCCCC(=O)NCCCNC(=O)CCOCC(COCCC(=O)NCCCNC(=O)CCCCO[C@@H]2O[C@H](CO)[C@H](O)[C@H](O)[C@H]2NC(C)=O)(COCCC(=O)NCCCNC(=O)CCCCO[C@@H]2O[C@H](CO)[C@H](O)[C@H](O)[C@H]2NC(C)=O)NC(=O)CCc2cn(CCOCCOCCOCCOCCOCCOCCOCCOCCOCCOCCOCCOCCOCCOCCOCCOCCOCCOCCOCCOCCOCCOCCOCCOCCC(=O)Oc3c(F)c(F)c(F)c(F)c3F)nn2)O[C@H](CO)[C@H](O)[C@@H]1O [Compound I-137] | – | – | relative uptake activity of Alexa488 labeled-target IgE in HepG2 cells [2]: comparable activity to the reference conjugate; also recorded: comparable activity to a reference conjugate
CC(C)(C)C(=O)N[C@H]1CO[C@H](CO)[C@H](O)[C@@H]1O [Compound 592] | – | > 50000 nM | –
CO[C@@H]1O[C@H](CO)[C@H](O)[C@H](O)[C@H]1NC(=O)COCCc1cn(CCOCCOCCNC(=O)CCC(CCC(=O)NCCOCCOCCn2cc(CCOCC(=O)N[C@H]3[C@H](OC)O[C@H](CO)[C@H](O)[C@@H]3O)nn2)(CCC(=O)NCCOCCOCCn2cc(CCOCC(=O)N[C@H]3[C@H](OC)O[C@H](CO)[C@H](O)[C@@H]3O)nn2)NC(=O)CCCCCCCCCCC(=O)Oc2c(F)c(F)c(F)c(F)c2F)nn1 [Compound I-155] | – | – | relative uptake activity of Alexa488 labeled-target IgE in HepG2 cells [2]: less active than the 1-position linked conjugate
C#CC[C@H]1O[C@H](CO)[C@H](O)[C@H](O)[C@H]1NC(C)=O [Compound 591] | – | 1000 to 50000 nM | ASGPR binding affinity among the tested monomers ([1]; monovalent compounds, dose response curves): highest affinity of the tested monomers
C#CCCCO[C@H]1CO[C@H](CO)[C@H](O)[C@@H]1O [Compound 593] | – | – | binding as a percentage of the activity of reference compound 18G ([1]; monovalent compounds at 100 μM): < 50%
CC(=O)N[C@H]1[C@H](OCCCCC(=O)NCCCNC(=O)CCOCC(COCCC(=O)NCCCNC(=O)CCCCO[C@@H]2O[C@H](CO)[C@H](O)[C@H](O)[C@H]2NC(C)=O)(COCCC(=O)NCCCNC(=O)CCCCO[C@@H]2O[C@H](CO)[C@H](O)[C@H](O)[C@H]2NC(C)=O)NC(=O)CCCCCCCCCCC(=O)O)O[C@H](CO)[C@H](O)[C@@H]1O [Compound I-124acid, reference compound] | > 100 nM | – | ASGPR binding affinity compared to reference compound 18G / other trivalent compounds [1, 5]: reduced ASGPR binding affinity
O=C(O)CCCCCCCCCCC(=O)NC(COCCC(=O)NCCCCNC(=O)c1ccc(OCc2cn([C@H]3CO[C@H](CO)[C@H](O)[C@@H]3O)nn2)cc1)(COCCC(=O)NCCCCNC(=O)c1ccc(OCc2cn([C@H]3CO[C@H](CO)[C@H](O)[C@@H]3O)nn2)cc1)COCCC(=O)NCCCCNC(=O)c1ccc(OCc2cn([C@H]3CO[C@H](CO)[C@H](O)[C@@H]3O)nn2)cc1 [1902 (I-172), 13,13-bis((3-((4-(4-((1-((3S,4R,5R,6R)-4,5-dihydroxy-6-(hydroxymethyl)tetrahydro-2H-pyran-3-yl)-1H-1,2,3-triazol-4-yl)methoxy)benzamido)butyl)amino)-3-oxopropoxy)methyl)-1-(4-((1-((3S,4R,5R,6R)-4,5-dihydroxy-6-(hydroxymethyl)tetrahydro-2H-pyran-3-yl)-1H-1,2,3-triazol-4-yl)methoxy)phenyl)-1,8,15-trioxo-11-oxa-2,7,14-triazahexacosan-26-oic acid] | ≤ 50 nM | – | ASGPR binding affinity compared to reference compound 18G / other trivalent compounds [1, 5]: comparable affinity as reference compound 18G
O=C(O)CCCCCCCCCCC(=O)NC(COCCC(=O)NCCCCNC(=O)c1cccc(OCc2cn([C@H]3CO[C@H](CO)[C@H](O)[C@@H]3O)nn2)c1)(COCCC(=O)NCCCCNC(=O)c1cccc(OCc2cn([C@H]3CO[C@H](CO)[C@H](O)[C@@H]3O)nn2)c1)COCCC(=O)NCCCCNC(=O)c1cccc(OCc2cn([C@H]3CO[C@H](CO)[C@H](O)[C@@H]3O)nn2)c1 [1901 (I-171), 13,13-bis((3-((4-(3-((1-((3S,4R,5R,6R)-4,5-dihydroxy-6-(hydroxymethyl)tetrahydro-2H-pyran-3-yl)-1H-1,2,3-triazol-4-yl)methoxy)benzamido)butyl)amino)-3-oxopropoxy)methyl)-1-(3-((1-((3S,4R,5R,6R)-4,5-dihydroxy-6-(hydroxymethyl)tetrahydro-2H-pyran-3-yl)-1H-1,2,3-triazol-4-yl)methoxy)phenyl)-1,8,15-trioxo-11-oxa-2,7,14-triazahexacosan-26-oic acid] | ≤ 50 nM | – | ASGPR binding affinity compared to reference compound 18G / other trivalent compounds [1, 5]: comparable affinity as reference compound 18G
